Results reported in patent US10682323B2, “Therapeutic agent for glaucoma” (TOA EIYO LTD., priority 2016, dated 2020).

What was measured:
[1] = Determination of Log D value (flask shaking method); format: physicochemical; conditions: pH 6.8; partition between n-octanol and second solution for the disintegration test (16th revised Japanese Pharmacopoeia), room temperature
Experimental: More specifically, the Log D is more preferably 1.6 or more and 2.3 or less, still more preferably 1.8 or more and 2.2 or less, and particularly preferably 1.8 or more and 2.1 or less. Here, the Log D value in the present invention is a compound partition coefficient between n-octanol and a second solution of a disintegration test of the 16th revised Japanese Pharmacopoeia.
The Log D value was determined using a flask shaking method, where a test compound partition coefficient between n-octanol and the second solution for the disintegration test defined in the 16th revised Japanese Pharmacopoeia was calculated. Specifically, in a microtube containing 2 mg of the test compound, n-octanol (0.25 mL) and the second solution for the disintegration test (0.25 mL) were mixed. The tube was shaken in a multi shaker at room temperature for 60 minutes, and allowed to stand until the two phases were completely separated. In the microtube, 10 μL of an n-octanol phase was diluted with 190 μL of 85% methanol and mixed, thereby obtaining an organic phase test solution. 100 μL of the second solution phase for the disintegration test was diluted with 100 μL of 50% methanol, and mixed, thereby obtaining an aqueous phase test solution. The organic phase test solution and the aqueous phase test solution were filtered, respectively, and the concentration of the test compound in these test solutions were measured, using high performance liquid chromatography. Then, from the measured concentration and dilution rate, the Log D was calculated.
That is, the Log D of the present specification is represented by the following equation: Log D=Log10([concentration of test compound in organic phase test solution]/[concentration of test compound in aqueous phase test solution])+1 [Equation 1]
The second solution for the disintegration test herein refers to, as defined in the 16th revised Japanese Pharmacopoeia, a liquid obtained by adding to 250 mL of a 0.2 mol/L potassium dihydrogenphosphate reagent, 118 mL of a 0.2 mol/L sodium hydroxide reagent, and water for adjusting to 1000 mL volume.

human sGC = target: T1, human sGC (Homo sapiens, UniProt Q02153); assay: Measurement of sGC activating effect in CHO-K1 cells stably expressing human sGC and mouse CNGA2; format: cell-based; conditions: CHO-K1 cells expressing human sGC and mouse CNGA2, Fura2 calcium readout, 10 μmol/L ODQ in assay buffer
T1 construct: expressed in transfected cells; host or cells: CHO-K1 cells (Chinese hamster ovary), stably co-expressing mouse CNGA2 as the calcium read-out channel
T1 sequence (Q02153 1-619): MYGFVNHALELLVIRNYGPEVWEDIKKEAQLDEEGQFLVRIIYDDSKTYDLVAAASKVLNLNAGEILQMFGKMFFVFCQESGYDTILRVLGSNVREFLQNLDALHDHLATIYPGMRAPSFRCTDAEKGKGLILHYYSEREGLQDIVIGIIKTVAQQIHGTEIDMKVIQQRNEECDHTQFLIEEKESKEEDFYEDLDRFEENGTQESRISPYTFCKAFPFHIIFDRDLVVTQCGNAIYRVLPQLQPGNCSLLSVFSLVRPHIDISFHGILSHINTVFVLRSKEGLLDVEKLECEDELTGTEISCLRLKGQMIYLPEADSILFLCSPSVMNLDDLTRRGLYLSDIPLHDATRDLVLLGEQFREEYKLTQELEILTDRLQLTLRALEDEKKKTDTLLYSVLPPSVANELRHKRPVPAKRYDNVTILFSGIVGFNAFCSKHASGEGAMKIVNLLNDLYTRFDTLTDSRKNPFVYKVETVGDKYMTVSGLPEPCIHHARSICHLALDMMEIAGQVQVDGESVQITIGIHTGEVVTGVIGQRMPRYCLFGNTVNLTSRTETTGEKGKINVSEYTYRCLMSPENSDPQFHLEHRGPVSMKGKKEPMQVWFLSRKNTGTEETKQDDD
T1 sequence (Q02108 1-690 partner): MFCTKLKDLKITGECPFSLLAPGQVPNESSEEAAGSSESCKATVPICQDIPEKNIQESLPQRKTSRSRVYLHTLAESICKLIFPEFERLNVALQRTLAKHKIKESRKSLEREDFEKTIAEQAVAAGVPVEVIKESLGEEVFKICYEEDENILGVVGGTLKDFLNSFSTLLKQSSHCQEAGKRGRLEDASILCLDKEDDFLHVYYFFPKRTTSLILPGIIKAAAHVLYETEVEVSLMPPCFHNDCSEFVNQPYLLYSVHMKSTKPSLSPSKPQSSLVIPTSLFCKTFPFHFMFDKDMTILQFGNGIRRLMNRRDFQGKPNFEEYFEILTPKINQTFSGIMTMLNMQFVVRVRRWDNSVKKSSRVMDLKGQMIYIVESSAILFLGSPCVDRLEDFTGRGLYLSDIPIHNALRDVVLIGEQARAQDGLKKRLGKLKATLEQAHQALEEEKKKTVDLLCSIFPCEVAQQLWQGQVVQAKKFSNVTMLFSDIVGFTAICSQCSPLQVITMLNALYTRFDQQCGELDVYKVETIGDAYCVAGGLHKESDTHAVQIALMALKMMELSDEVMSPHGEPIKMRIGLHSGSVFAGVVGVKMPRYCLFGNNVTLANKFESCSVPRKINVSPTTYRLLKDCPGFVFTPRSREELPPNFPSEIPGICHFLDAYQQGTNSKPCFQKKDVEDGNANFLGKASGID
Experimental: Chinese Hamster ovary cells (CHO-K1 cells) modified for stably expressing human sGC α subunit and β subunit, and a mouse cyclic nucleotide gated channel (CNGA2) were used in the test.
The CHO-K1 cells stably expressing human sGC and mouse CNGA2 were cultured at 37° C. in a F-12 medium supplemented with 10% (v/v) fetal bovine serum (FBS), penicillin (100 U/mL), streptomycin (100 μg/mL), G418 (250 μg/mL), and Zeocin (250 μg/mL). The cells were suspended in a culture medium, seeded in a 96 well plate, and cultured at 37° C. for 24 hours. The cells were washed with an assay buffer 1 (140 mmol/L of sodium chloride, 5 mmol/L of potassium chloride, 0.5 mmol/L of magnesium chloride, 0.01 mmol/L of calcium chloride, 10 mmol/L of glucose, 0.4 mmol/L of magnesium sulfate, 10 mmol/L of 4-(2-hydroxyethyl)piperazine-1-yl ethanesulfonic acid, 125 μmol/L of sulfinpyrazone, pH 7.4), and then an indicator solution in which Fura2-AM as a fluorescent Ca2+ indicator is dissolved in assay buffer 1 at a concentration of 5 μmol/L was added thereto, and cultured at 37° C. for 60 minutes. The culture medium was removed, the cells were washed with assay buffer 1, the test compound solution was added thereto, and cultured at room temperature for 10 minutes. The plate was mounted on a fluorescence microplate reader (FlexStation II, available from Molecular Devices) with setting of excitation wavelengths of 340 and 380 nm and a detection wavelength of 510 nm, an intracellular calcium concentration was measured as a fluorescent intensity ratio obtained from each excitation wavelength.
In this test, the solution of the test compound was prepared by dissolving each test compound in DMSO at a concentration of 10 mmol/L, and then diluting the solution with assay buffer 2 (140 mmol/L of sodium chloride, 5 mmol/L of potassium chloride, 0.5 mmol/L of magnesium chloride, 1 mmol/L of calcium chloride, 10 mmol/L of glucose, 0.4 mmol/L of magnesium sulfate, 10 mmol/L of 4-(2-hydroxyethyl)piperazine-1-yl ethanesulfonic acid, 125 μmol/L of sulfinpyrazone, 100 μmol/L of isobutylmethylxanthine, 10 μmol/L of 1H-[1,2,4]-oxadiazole [4,3-a]quinoxaline-1-on (hereinafter, referred to as ODQ), pH 7.4), in order to adjust the concentration of 10 μmol/L for testing. As a control solution, a DMSO diluted solution was used, instead of the test compound solution.
The activity of the test compound was calculated as an increase rate (%) of the sGC activity in the test compound solution relative to the sGC activity in the control solution, by dividing a fluorescent intensity ratio in adding the test compound by a fluorescent intensity ratio of the control solution, and subtracting the sGC activity in the control solution (100%) therefrom. An EC50 value was calculated from the activity of the test compound at concentrations of 0.0001, 0.001, 0.003, 0.01, 0.03, 0.1, 1, and 10 μmol/L, using a 4 parameter losgistic model from Assay Explorer (available from Dssault Systèmes BIOVIA).

With N#Cc1cccc([C@H](CN(CCCCC(=O)O)Cc2ccc(C(=O)O)cc2)OCc2ccc(CCc3ccccc3)cc2)c1 [Compound No. 1, (−)-4-([N-(4-carboxybutyl)-N-[(2R)-2-(3-cyanophenyl)-2-[4-(2-phenylethyl)benzyloxy]ethyl]amino]methyl)benzoic acid] as the compound, how does the logD [1] read?
The logD was 2.03.

And the EC50 (human sGC)?
The EC50 was 8.8 nM.

For CC(C)(C)c1cccc(CO[C@@H](CN(CCCCC(=O)O)Cc2ccc(C(=O)O)cc2)c2cccc(Cl)c2)c1 [Compound No. 2, (−)-4-([N-[2-(3-tert-butylbenzyloxy)-(2R)-2-(3-chlorophenyl)ethyl]-N-(4-carboxybutyl)amino]methyl)benzoic acid], which logD [1] is on record?
Its logD is 2.14.

What about the EC50 (human sGC) of the same compound?
The EC50 was 1.54 nM.

What does the source list for O=C(O)CCCCN(Cc1ccc(C(=O)O)cc1)C[C@H](OCc1ccc(CCc2ccccc2)cc1F)c1ccccc1 [Compound No. 3, (−)-4-([N-(4-carboxybutyl)-N-[(2R)-2-[2 fluoro-4-(2-phenylethyl)benzyloxy]-2-phenylethyl]amino]methyl)benzoic acid]?
logD [1]: 1.99; EC50 (human sGC): 2.35 nM

With O=C(O)CCCCN(Cc1ccc(C(=O)O)cc1)C[C@H](OCc1ccc(CCc2ccccc2)s1)c1ccccc1 [Compound No. 4, (−)-4-[(N-(4-carboxybutyl)-N-[(2R)-2-[5-(2-phenylethyl)thiophene-2-ylmethoxy]-2-phenylethyl]amino)methyl]benzoic acid] as the compound, how does the logD [1] read?
The logD was 1.8.

And the EC50 (human sGC)?
Its EC50 is 1.61 nM.

Which logD [1] does the source give for O=C(O)CCCCN(Cc1ccc(C(=O)O)cc1)C[C@H](OCc1ccc(Oc2ccc(Cl)cc2)cc1)c1ccccc1 [Compound No. 5, (−)-4-([N-(4-carboxybutyl)-N-[(2R)-2-[4-(4-chlorophenyloxy)benzyloxy]-2-phenylethyl]amino]methyl)benzoic acid] here?
Its logD is 2.17.

And the EC50 (human sGC)?
Its EC50 is 6.49 nM.

Which logD [1] does the source give for O=C(O)CCCCN(Cc1ccc(C(=O)O)cc1)CC(OCc1ccc(CCc2ccccc2)cc1)c1cccs1 (centres unmarked) [Compound No. 7, ([N-(4-carboxybutyl)-N-[2-[4-(2-phenylethyl)benzyloxy]-2-(2-thienyl)ethyl]amino]methyl)benzoic acid] here?
Its logD is 2.11.

And the EC50 (human sGC)?
Its EC50 is 3.92 nM.

What does the source list for CC(C)(C)c1cccc(COc2ccccc2CCN(CCCCC(=O)O)[C@H]2CCCc3cc(C(=O)O)ccc32)c1 [Compound No. 9, (+)-(5S)-5-[N-[2-[2-(3-tert-butylbenzyloxy)phenyl]ethyl]-N-(4-carboxybutyl)amino]-5,6,7,8-tetrahydronaphthalene-2-carboxylic acid]?
logD [1]: 2.09; EC50 (human sGC): 7.09 nM

What does the source list for CC(C)c1ccc(COc2ccccc2CCN(CCCCC(=O)O)[C@H]2CCCc3cc(C(=O)O)ccc32)cc1 [Compound No. 10, (+)-(5S)—[N-(4-carboxybutyl)-N-[2-[2-(4-isopropylbenzyloxy)phenyl]ethyl]amino]-5,6,7,8-tetrahydronaphthalene-2-carboxylic acid]?
logD [1]: 1.88; EC50 (human sGC): 9.63 nM

For O=C(O)CCCCN(Cc1ccc(C(=O)O)cc1)C[C@H](OCc1cccc(CCc2ccccc2)c1)c1ccccc1 [Compound No. 11, (−)-4-([N-(4-carboxybutyl)-N-[(2R)-2-[3-(2-phenylethyl)benzyloxy]-2-phenylethyl]amino]methyl)benzoic acid], which logD [1] is on record?
The logD was 1.94.

And the EC50 (human sGC)?
Its EC50 is 1.99 nM.

For O=C(O)CCCCN(CCc1ccccc1OCc1ccc(CCc2ccccc2)cc1)[C@H]1CCc2cc(C(=O)O)ccc21 [Compound No. 12], which logD [1] is on record?
Its logD is 1.95.

And the EC50 (human sGC)?
Its EC50 is 11.9 nM.

Which results are given for O=C(O)CCCCN(Cc1ccc(C(=O)O)cc1)CC(OCc1ccc(CCc2ccccc2)cc1)c1ccc(F)cc1 (centres unmarked) [Compound No. 13, 4-([N-(4-carboxybutyl)-N-[2-(4-fluorophenyl)-2-[4-(2-phenylethyl)benzyloxy]ethyl]amino]methyl)benzoic acid]?
logD [1]: 2.19; EC50 (human sGC): 26.5 nM

What does the source list for CC(C)(C)c1ccccc1COc1ccccc1CCN(CCCCC(=O)O)C1CCCc2cc(C(=O)O)ccc21 (centres unmarked) [Compound No. 15, 5-[N-[2-[2-(2-tert-butylbenzyloxy)phenyl]ethyl]-N-(4-carboxybutyl)amino]-5,6,7,8-tetrahydronaphthalene-2-carboxylic acid]?
logD [1]: 1.95; EC50 (human sGC): 13.4 nM

For O=C(O)CCCCN(CCc1ccccc1OC[C@@H]1CCc2ccccc2C1)C1CCCc2cc(C(=O)O)ccc21 (stereo partly drawn) [Compound No. 16, 5-[N-(4-carboxybutyl)-N-[2-[2-((2R)-1,2,3,4-tetrahydronaphthalene-2-ylmethoxy)phenyl]ethyl]amino]-5,6,7,8-tetrahydronaphthalene-2-carboxylic acid], which logD [1] is on record?
The logD was 1.99.

And the EC50 (human sGC)?
Its EC50 is 7.5 nM.
